The subject of this experiment is YAP-TEAD. In words: TEAD inhibition, Hippo Pathway TEAD Reporter MCF-7 luciferase assay. It counts as cell-based. The conditions noted are these: Homo sapiens, MCF7, 24 h, Hippo Pathway TEAD Reporter MCF-7 cells, luciferase activity after 24 h; read-out: IC50 of the test compounds on YAP-TEAD inhibition (Group). An outline of the steps: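 IC50 derived from ONE-Glo luciferase luminescence after 24 h compound exposure (11 concentrations in quadruplicate, 0.1% DMSO control). Reporter: MCF-7 line expressing firefly luciferase under TEAD elements, constitutively activated by nuclear YAP1.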

The IC50 is the midpoint of a concentration-inhibition curve. In the case of `COc1ccc(Oc2ncc(C(F)(F)F)cc2F)cc1NC(=O)[C@@H]1CN(C)C(=O)N1C` [Compound 359, (S)—N-(5-((3-Fluoro-5-(trifluoromethyl)pyridin-2-yl)oxy)-2-methoxyphenyl)-1,3-dimethyl-2-oxoimidazolidine-4-carboxamide], the IC50 lay within 50 to 300 nM.
Under `COc1ccc(Oc2cccc(C(F)(F)F)c2)cc1NC(=O)C1CN(C(C)=O)C1` [Compound 289, 1-Acetyl-N-(2-methoxy-5-(3-(trifluoromethyl)phenoxy)phenyl)azetidine-3-carboxamide] stands 301 to 2000 nM; under `COc1ccc(Oc2ccc(C(F)(F)F)cc2)cc1NC(=O)C1CCNC(=O)C1` (centres unmarked) [Compound 322, N-(2-Methoxy-5-(4-(trifluoromethyl)phenoxy)phenyl)-2-oxopiperidine-4-carboxamide], under 50 nM; under `COc1ccc(/C=C/C2CCC(F)(F)CC2)cc1NC(=O)[C@H]1CCC(=O)N1C` [Compound 23], under 50 nM.
Under `O=C1CC(C(=O)Nc2cc(Oc3ccc(C(F)(F)F)cn3)cc3c2OCC3)CCN1` (centres unmarked) [Compound 160, 2-Oxo-N-(5-((5-(trifluoromethyl)pyridin-2-yl)oxy)-2,3-dihydrobenzofuran-7-yl)-piperidine-4-carboxamide] stands 50 to 300 nM.
Under `COc1ccc(COc2ccc(F)c(F)c2)cc1NC(=O)C1CCC(=O)N1C` (centres unmarked) [Compound 95, N-(5-((3,4-Difluorophenoxy)methyl)-2-methoxyphenyl)-1-methyl-5-oxo-pyrrolidine-2-carboxamide] stands 50 to 300 nM; under `O=C(Nc1cc(Oc2ccc(C(F)(F)F)cn2)cc2c1OCO2)C1CCC(=O)N1C1CC1` (centres unmarked) [Compound 179, 1-Cyclopropyl-5-oxo-N-(6-((5-(trifluoromethyl)pyridin-2-yl)oxy)benzo[d]-[1,3]dioxol-4-yl)pyrrolidine-2-carboxamide], under 50 nM.
With `COc1ccc(Oc2ccc(C(F)(F)F)nc2)cc1NC(=O)C1CCC(=O)N1` (centres unmarked) [Compound 62, N-(2-Methoxy-5-((6-(trifluoromethyl)pyridin-3-yl)oxy)phenyl)-5-oxopyrrolidine-2-carboxamide], the IC50 was in the range of 50 to 300 nM.
Under `COC(=O)CN1C(=O)CCC1C(=O)Nc1cc(Oc2ccc(C(F)(F)F)cc2)ccc1OC` (centres unmarked) [Compound 354, Methyl 2-(2-((2-methoxy-5-(4-(trifluoromethyl)phenoxy)phenyl)carbamoyl)-5-oxopyrrolidin-1-yl)acetate] stands 301 to 2000 nM; under `COc1ccc(Oc2ccc(Cl)cc2)cc1NC(=O)[C@@H]1CNC(=O)N1C` [Compound 356, (S)—N-(5-(4-Chlorophenoxy)-2-methoxyphenyl)-3-methyl-2-oxoimidazolidine-4-carboxamide], under 50 nM.
Under `COc1cc(Oc2ccc(O)c(NC(=O)C3CCC(=O)N3C)c2)ccc1C(F)(F)F` (centres unmarked) [Compound 410, N-(2-Hydroxy-5-(3-methoxy-4-(trifluoromethyl)phenoxy)phenyl)-1-methyl-5-oxopyrrolidine-2-carboxamide] stands 301 to 2000 nM; under `COc1ccc(Oc2ccc(C(F)(F)F)cc2)cc1NC(=O)[C@@H]1C[C@H](O)C(=O)N1C` [Compound 380, (2S,4S)-4-Hydroxy-N-(2-methoxy-5-(4-(trifluoromethyl)phenoxy)phenyl)-1-methyl-5-oxopyrrolidine-2-carboxamide], 50 to 300 nM.
Under `CN1C(=O)CC[C@@H]1C(=O)Nc1cc(Oc2ccc(C(F)F)cc2)cc2c1OCC2` [Compound 215, (R)—N-(5-(4-(Difluoromethyl)phenoxy)-2,3-dihydrobenzofuran-7-yl)-1-methyl-5-oxopyrrolidine-2-carboxamide] stands under 50 nM; under `COc1ccc(Oc2cc(C(F)(F)F)ccn2)cc1NC(=O)C1CCC(=O)N1C` (centres unmarked) [Compound 201, N-(2-Methoxy-5-((4-(trifluoromethyl)pyridin-2-yl)oxy)phenyl)-1-methyl-5-oxopyrrolidine-2-carboxamide], 301 to 2000 nM.

These data come from patent publication US20240246908A1 (ORION CORPORATION, priority 2021, published 2024).
